Reference: publication PMC6835510, “Magnificamide, a β-Defensin-Like Peptide from the Mucus of the Sea Anemone Heteractis magnifica, Is a Strong Inhibitor of Mammalian α-Amylases” (Marine Drugs, 2019)
Like-named read-outs stand apart in the source and are kept apart here. Bridge positions count the residues as written; N and C are the ends. Ends that are not written are not given here.

Tests used:
[1] = target: T1, porcine pancreatic α-amylase (PPA) (Sus scrofa, UniProt P00690); settings: cited from earlier work
T1 construct: purchased Sigma Aldrich A4268
T1 sequence (P00690 16-511): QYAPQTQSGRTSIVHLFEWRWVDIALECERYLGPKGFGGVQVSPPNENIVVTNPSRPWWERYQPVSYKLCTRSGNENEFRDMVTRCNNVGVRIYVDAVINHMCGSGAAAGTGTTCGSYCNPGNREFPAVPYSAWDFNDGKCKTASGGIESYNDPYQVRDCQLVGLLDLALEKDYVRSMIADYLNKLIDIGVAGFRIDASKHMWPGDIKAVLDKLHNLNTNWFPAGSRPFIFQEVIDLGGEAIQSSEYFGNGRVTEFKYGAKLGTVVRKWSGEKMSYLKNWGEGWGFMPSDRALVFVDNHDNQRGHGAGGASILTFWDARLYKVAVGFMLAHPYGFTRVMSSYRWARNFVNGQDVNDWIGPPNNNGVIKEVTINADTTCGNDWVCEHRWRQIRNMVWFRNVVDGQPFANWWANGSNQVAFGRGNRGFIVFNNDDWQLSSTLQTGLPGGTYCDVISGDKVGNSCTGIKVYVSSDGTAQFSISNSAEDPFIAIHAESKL
From the text: It covers all age groups of the population, and recently it has spread epidemiologically among children and adolescents. The blood glucose levels of diabetic patients reaches abnormally high values, which leads to serious damage to many body systems, especially nerves and blood vessels, causing heart and kidney diseases, blindness, and even the amputation of limbs. […] Recently, as a result of the proteomic analysis of the sea anemone H. magni ...

[2] = target: porcine pancreatic α-amylase (porcine) (UniProt P00690); assay: enzyme inhibition kinetics (Morrison tight-binding fit); 37 °C, 50 mM sodium phosphate, 100 mM sodium chloride, pH 7.0; substrate CNPG3 (1 mM with nominal 20 nM PPA; 3.3 mM with nominal 100 nM HSA); enzyme pre-incubated with inhibitor 10 min; Ki from Ki app assuming a competitive mode of inhibition; triplicate
[3] = target: human pancreatic α-amylase (HPA); settings: Table 5, ref [11]; cited from earlier work
From the text: Recently, as a result of the proteomic analysis of the sea anemone H. magni ...

[4] = test system: human saliva α-amylases (HSA); settings: cited from earlier work
From the text: It covers all age groups of the population, and recently it has spread epidemiologically among children and adolescents. The blood glucose levels of diabetic patients reaches abnormally high values, which leads to serious damage to many body systems, especially nerves and blood vessels, causing heart and kidney diseases, blindness, and even the amputation of limbs. The preferred way to maintain ...

[5] = test system: fungi, Gram-positive or Gram-negative bacteria; assay: Antimicrobial screening, overall; type: cell-based; settings: 1, 5, 10, 20 µM; listed as magnificamide
Protocol: The antimicrobial activity of r-magnificamide was tested against Gram-positive (Staphylococcus aureus ATCC 21027 and Bacillus subtilis ATCC6633), Gram-negative bacteria (Escherichia coli VKPM B-7935 and Pseudomonas aeruginosa ATCC 27853), and the fungus Candida albicans KMM 455 by the agar dilution method. Microbial strains were taken from the American Type Culture Collection (ATCC), Russian National Collection of Industrial Microorganisms (VKPM), and Collection of Marine Microorganisms (KMM) (Pacific Institute of Bioorganic Chemistry FEB RAS). To obtain a microbial lawn, 0.1 mL of a cell suspension (0.5 × 10^8 cells/mL) was uniformly distributed on agar surface in Petri dishes (15 g/L tryptic soy broth, 2 g/L bacto yeast extract, 1 g/L glucose, and 20 g/L agar for bacteria; for fungi 10 g/L of glucose was added). Wells with a diameter of 6 mm were punched into the agar and filled with 100 µL of the peptide solution at concentrations 1, 5, 10, and 20 µM. The plates were then incubated for 18 h at 37 °C for bacteria, and at 30 °C for the fungus. Minimum inhibitory concentration was determined by measuring the clear zone of inhibition around each well. All assays were performed independently three times.

[6] = test system: 18 subtypes of voltage-gated potassium and voltage-gated sodium channels; assay: Electrophysiological screening, overall; type: cell-based; settings: 10 µM; Xenopus laevis oocytes; listed as magnificamide
From the text: For the expression of Nav channels (mammalian rNav1.2, rNav1.4, hNav1.5, mNav1.6 and hNav1.8 channels; the insect channel BgNav1 from Blattella germanica; and the auxiliary subunits rβ1, hβ1, and TipE) and Kv channels (mammalian rKv1.1, rKv1.2, hKv1.3, rKv1.4, rKv1.5, rKv1.6, rKv2.1, hKv3.1, rKv4.2, hKv10.1, and hERG; and Drosophila Shaker’s IR) in Xenopus laevis oocytes; the linearized plasmids were transcribed using the T7 or SP6 mMESSAGE-mMACHINE transcription kit (Ambion, Carlsbad, CA, USA). The harvesting of stage V–VI oocytes from anesthetized female Xenopus laevis frog was previously described. Oocytes were injected with 50 nL of cRNA at a concentration of 1 ng/nL using a microinjector (Drummond Scientific, Broomall, PA, USA). The oocytes were incubated in a solution containing 96-mM NaCl, 2-mM KCl, 1.8-mM CaCl2, 2-mM MgCl2, and 5-mM HEPES (pH 7.4), supplemented with 50 mg/L gentamycin sulfate.
Two-electrode voltage-clamp recordings were performed at room temperature (18–22 °C) using a Geneclamp 500 amplifier (Molecular Devices, Downingtown, PA, USA) controlled by a pClamp data acquisition system (Axon Instruments, Union City, CA, USA). Whole cell currents from oocytes were recorded 1–4 days after injection. The bath solution’s composition was 96-mM NaCl, 2-mM KCl, 1.8-mM CaCl2, 2-mM MgCl2, and 5-mM HEPES (pH 7.4). Toxins were applied directly to the bath. Resistances of both electrodes were kept between 0.8 and 1.5 MΩ. The elicited currents were sampled at 20 kHz (Nav) or 2 kHz (Kv), filtered at 2 kHz (Nav) or 0.5 kHz (Kv) using a four-pole low-pass Bessel filter. Leak subtraction was performed using a -P/4 protocol. […] For the electrophysiological analysis, a number of protocols were applied from a holding potential of −90 mV with a start-to-start interval of 0.2 Hz. Kv1.1–Kv1.6 and Shaker currents were evoked by 250-ms depolarizations to 0 mV followed by a 250 ms pulse to −50 mV from a holding potential of −90 mV. […] All data were analyzed using pClamp Clampfit 10.0 (Molecular Devices, Downingtown, PA, USA) and Origin 7.5 software (Originlab, Northampton, MA, USA).

[7] = target: human salivary α-amylase (HSA) (Homo sapiens, UniProt P0DUB6); assay: Determination of Ki against human saliva α-amylase (Morrison); type: biochemical; settings: pH 7, Table 5 summary, own value; 37 °C, pH 7.0, CNPG3, Morrison fit; read-out: Ki, M (HSA) (converted)
human salivary α-amylase (HSA), sequence (P0DUB6 16-511): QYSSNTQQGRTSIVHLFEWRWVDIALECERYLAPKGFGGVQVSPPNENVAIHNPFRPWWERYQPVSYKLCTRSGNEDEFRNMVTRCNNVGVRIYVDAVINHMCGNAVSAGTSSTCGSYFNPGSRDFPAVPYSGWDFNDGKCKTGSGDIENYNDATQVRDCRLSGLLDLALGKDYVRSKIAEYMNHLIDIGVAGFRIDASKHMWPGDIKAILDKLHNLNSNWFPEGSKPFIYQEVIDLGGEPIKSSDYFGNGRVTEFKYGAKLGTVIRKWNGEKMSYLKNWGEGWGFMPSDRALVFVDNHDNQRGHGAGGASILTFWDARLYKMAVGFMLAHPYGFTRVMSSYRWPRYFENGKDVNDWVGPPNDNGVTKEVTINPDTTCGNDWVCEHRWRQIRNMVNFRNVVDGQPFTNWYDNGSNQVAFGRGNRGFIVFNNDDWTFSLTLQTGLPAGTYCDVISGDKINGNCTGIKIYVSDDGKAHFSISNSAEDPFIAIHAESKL
Protocol: For a quantitative assessment of tight-binding inhibitor potency, Morrison’s method was applied. This method uses the Morrison quadratic equation (Equation (1)) for fitting inhibitor-response data and determining Ki app as a nonlinear regression parameter. (1) υ/υo=1−([E]+[I]+Kiapp)−([E]+[I]+Kiapp)^2−4[E][I]/2[E]o
Kinetic assays were carried out at 37 °C in 50 mM sodium phosphate and 100 mM sodium chloride (pH 7.0). 2-Chloro-4-nitrophenyl-α-maltotrioside (CNPG3) (Sigma Aldrich, St. Louis, MO, USA) was used as the substrate and the optical absorption of the 2-chloro-4-nitrophenol was measured at 405 nm. Reactions were run with final [CNPG3] = 1 mM ([S]/KM = 1.41, KM = 0.71 mM), nominal [E] = 20 nM for PPA, [CNPG3] = 3.3 mM ([S]/KM = 0.97, KM = 3.4 mM), and nominal [E] = 100 nM for HSA to provide sufficient analytical signal. Inhibitor dilution schemes were optimized considering recommendations in [34].
The enzyme was pre-incubated with the inhibitor for 10 minutes before the addition of substrate which launched the reaction. Reactions were monitored on an xMark microplate spectrophotometer (BioRad, USA) in the kinetic mode for 30 min. The initial linear steady state region provided initial rate values for each inhibitor concentration (υ), along with uninhibited rate values (υo). Measurements were run in triplicate. […]

[8] = due to β-sandwich fold; ref [17]; cited from earlier work
From the text: The medicines based on proteins and peptides are poorly represented in the pharmacological market, but attract the interest of specialists due to their high selectivity and effectiveness, combined with relative safety and good tolerability. A large number of proteinaceous α-amylase inhibitors have been isolated from plants, but they are highly specific and interacted with plant α-amylases to control the breakdown of stored starch or with insect α-amylases for defense. Several very effective proteinaceous inhibitors of mammalian, but not plant or microbial α-amylases were found in bacter ...

For “Helianthamide: α-amylase inhibitor of the β-defensins family from Stichodactyla helianthus (44 aa, 4716 Da); PDB ID 4XON (ESGNSCYIYHGVSGICKASCAEDEKAMAGMGVCEGHLCCYKTPW; three disulfide bridges; the text prints the PDB ID as 4XON, read as 4X0N (complex with porcine pancreatic alpha-amylase)) [reference compound]”, the Ki ([1]; Table 5, ref [18]) is listed as 0.1 nM.

For recombinant magnificamide (peptide), the Ki [2] was 0.17 nM.

For Montbretin A, the Ki [3] is listed as 8.1 nM.

For `C[C@H]1O[C@H](O[C@H]2[C@H](O)[C@@H](O)[C@@H](O[C@H]3[C@H](O)[C@@H](O)C(O)O[C@@H]3CO)O[C@@H]2CO)[C@H](O)[C@@H](O)[C@@H]1N[C@H]1C=C(CO)[C@@H](O)[C@H](O)[C@H]1O` (some centres unmarked) [Acarbose], the Ki ([4]; Table 5, ref [9], read-out: Ki, M (HSA) (converted)) is listed as 1300 nM and the Ki ([4]; ref [9], read-out: Ki against HSA) is listed as 1260 nM.

In the case of “SEGTSCYIYHGVYGICKAKCAEDMKAMAGMGVCEGDLCCYKTPW (disulfide 6-38, 16-33, 20-39) [Magnificamide]”, the “Antimicrobial activity, overall” value [5] is reported as “No antimicrobial activity against Gram-positive, Gram-negative bacteria, or fungi was observed”, the “Ion channel modulating activity, overall” value [6] is reported as “found no activity” and the Ki [7] is reported as 7.7 nM.

B1: Tendamistat (HOE-467A): α-amylase inhibitor from Streptomyces tendae 4158, Mr 7958 Da (protein, UniProt P01092 31-104, looked up)
Alpha-amylase inhibitor …: DTTVSEPAPSCVTLYQSWRYSQADNGCAQTVTVKVVYEDDTEGLCYAVAPGQITTVGDGYIGSHGHARYLARCL
For B1, the immunogenicity [8] is listed as “high immunogenicity” and the Ki ([1]; Table 5, ref [13]) is listed as 0.009 nM.

B2: Parvulustat (Z-2685): α-amylase inhibitor from Streptomyces parvullus FH-1641, Mr 8129 Da (protein)
chain: ATGSPVAECVEYFQSWRYTDVHNGCADAVSVTVEYTHGQWAPCRVIEPGGWATFAGYGTDGNYVTGLHTCDPATPSGV
modifications: two disulfide bridges; expected 78 aa, 8129 Da
In the case of B2, the Ki ([1]; Table 5, ref [16]) is listed as 0.028 nM.
